Data from the supplement of paper PMC6288085.
± gives the standard deviation of the averaged measurements.

Tests used:
[1] = system: Caenorhabditis elegans N2; test: food intake (delta OD600 day1-day4, bacterial clearance) (OD600 units); higher = more food eaten; settings: genotype: wt, 72 h
Caenorhabditis elegans = test: as above; settings: 72 h
Procedure: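 C. elegans N2 or ser-5(vq1) knockout adults in 96-well plates treated with olanzapine, quetiapine, ziprasidone or serotonin over a dose range. Food intake was measured as bacterial clearance, delta OD600 from day 1 to day 4 per well (14-21 replicate wells of 5-15 animals).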

Cc1cc2c(s1)Nc1ccccc1N=C2N1CCN(C)CC1 [Olanzapine]
[1]
Settings	food intake
0.05 µM	0.0155 ± 0.0028
0.5 µM	0.0153 ± 0.0013
5 µM	0.0152 ± 0.0038
10 µM	0.0159 ± 0.0025
20 µM	0.015 ± 0.0017
50 µM	0.0149 ± 0.0025
100 µM	0.0184 ± 0.0027
200 µM	0.0186 ± 0.0027

food intake, Caenorhabditis elegans
Settings	0.5 µM	5 µM	20 µM	50 µM	100 µM	200 µM
genotype: ser-5(vq1)	0.0069 ± 0.0017	0.00729 ± 0.0017	0.0081 ± 0.0016	0.00845 ± 0.0018	0.00859 ± 0.0022	0.00839 ± 0.0019
genotype: wt	0.00731 ± 0.0022	0.00919 ± 0.0018	0.0102 ± 0.0017	0.0117 ± 0.0018	0.0138 ± 0.0019	0.0148 ± 0.0024

CN(C)CCCN1c2ccccc2Sc2ccc(Cl)cc21 [Chlorpromazine]
[1]
Settings	food intake
0.05 µM	0.0145 ± 0.0024
0.1 µM	0.0149 ± 0.003
0.2 µM	0.0171 ± 0.0044
0.5 µM	0.0191 ± 0.0025
0.75 µM	0.0204 ± 0.0038
1 µM	0.0201 ± 0.0033
2 µM	0.0233 ± 0.0053
5 µM	0.0214 ± 0.0034

OCCOCCN1CCN(C2=Nc3ccccc3Sc3ccccc32)CC1 [Quetiapine]
[1]
Settings	food intake
0.1 µM	0.00598 ± 0.0014
3 µM	0.00727 ± 0.0012
10 µM	0.00847 ± 0.0015
30 µM	0.0103 ± 0.0018
100 µM	0.0115 ± 0.0024
200 µM	0.0118 ± 0.0032

food intake, Caenorhabditis elegans
Settings	0.1 µM	3 µM	10 µM	30 µM	100 µM	200 µM
genotype: ser-5(vq1)	0.00593 ± 0.0015	0.00574 ± 0.0014	0.00662 ± 0.0017	0.00674 ± 0.0016	0.00602 ± 0.0015	0.0055 ± 0.0014
genotype: wt	0.00754 ± 0.0018	0.00775 ± 0.0022	0.00993 ± 0.0021	0.0118 ± 0.0027	0.0127 ± 0.0034	0.0103 ± 0.0026

NCCc1c[nH]c2ccc(O)cc12 [Serotonin]
food intake, Caenorhabditis elegans
Settings	100 µM	500 µM	1000 µM	2000 µM	5000 µM	10000 µM
genotype: ser-5(vq1)	0.00664 ± 0.0014	0.00869 ± 0.0018	0.0118 ± 0.0024	0.0155 ± 0.0025	0.0182 ± 0.0025	0.0182 ± 0.003
genotype: wt	0.00773 ± 0.0016	0.00951 ± 0.0034	0.0142 ± 0.0025	0.0176 ± 0.0028	0.0199 ± 0.0031	0.0189 ± 0.0036

CN(C)CC/C=C1/c2ccccc2Sc2ccc(Cl)cc21 [Chlorprothixene]
[1]
Settings	food intake
0.4 µM	0.0203 ± 0.0033
2 µM	0.0255 ± 0.0055
10 µM	0.0194 ± 0.0019

CN1CCN(C2=Nc3ccccc3Oc3ccc(Cl)cc32)CC1 [Loxapine]
[1]
Settings	food intake
0.05 µM	0.0139 ± 0.0032
0.5 µM	0.0143 ± 0.003
5 µM	0.0196 ± 0.0047
10 µM	0.0212 ± 0.0027
20 µM	0.0217 ± 0.002
50 µM	0.0234 ± 0.0019
100 µM	0.023 ± 0.0034
200 µM	0.0195 ± 0.0029

CN1CC2c3ccccc3Oc3ccc(Cl)cc3C2C1 (stereo not drawn) [Asenapine]
[1]
Settings	food intake
0.01 µM	0.00861 ± 0.0014
0.03 µM	0.0107 ± 0.002
0.1 µM	0.0122 ± 0.0018
0.3 µM	0.0127 ± 0.0016
1 µM	0.0127 ± 0.0018
3 µM	0.0112 ± 0.0017

O=C1Cc2cc(CCN3CCN(c4nsc5ccccc45)CC3)c(Cl)cc2N1 [Ziprasidone]
[1]
Settings	food intake
0.01 µM	0.00881 ± 0.0015
0.03 µM	0.0107 ± 0.0022
0.1 µM	0.0128 ± 0.0021
0.3 µM	0.0136 ± 0.0016
1 µM	0.0136 ± 0.0024
3 µM	0.0138 ± 0.0019

food intake, Caenorhabditis elegans
Settings	0.01 µM	0.03 µM	0.1 µM	0.3 µM	1 µM	3 µM
genotype: ser-5(vq1)	0.00508 ± 0.0018	0.00569 ± 0.0015	0.00662 ± 0.0014	0.00664 ± 0.0016	0.00712 ± 0.0025	0.0061 ± 0.0015
genotype: wt	0.00821 ± 0.0024	0.00974 ± 0.0022	0.0135 ± 0.0022	0.0153 ± 0.0027	0.0145 ± 0.0029	0.0145 ± 0.0032
